Assay [1] has as its target T1, GABABR-coupled CaV2.2 (Homo sapiens, UniProt O75899+Q9UBS5).
T1 construct: expressed in transfected cells
Nature of the assay: cell-based. More on the design: species or system rat Cav2.2. The following applies: for inhibition at 1 µM: HEK293, read-out: Inhibition Efficacy (1 µM)%, SEM; for IC50: IC50 (nM) (95% Confidence Interval).

Assay [2] addresses T2, α7 nAChR (Rattus norvegicus, UniProt Q05941).
T2 construct: expressed in transfected cells; host or cells: Xenopus oocytes, cRNA injected
The class given is cell-based. To be noted: SEM.

The target of assay [3] is T3, α3β4 nAChR (Rattus norvegicus, UniProt P04757+P12392).
T3 construct: expressed in transfected cells; host or cells: Xenopus oocytes, cRNA injected
The class given is cell-based. The following applies: SEM.

In assay [4] the target is T4, α2β4 nAChR (Rattus norvegicus, UniProt P12389+P12392).
T4 construct: expressed in transfected cells; host or cells: Xenopus oocytes, cRNA injected
The class given is cell-based. The following applies: SEM.

Assay [5] deals with T5, α4β2 nAChR (Rattus norvegicus, UniProt P09483+P12390).
T5 construct: expressed in transfected cells; host or cells: Xenopus oocytes, cRNA injected
The class given is cell-based. The following applies: SEM.

Assay [6] concerns the target T6, α9α10 nAChR (Rattus norvegicus, UniProt P43144+Q9JLB5).
T6 construct: expressed in transfected cells; host or cells: Xenopus oocytes, cRNA injected
The class given is cell-based. To be noted: SEM.

The target in assay [7] is T7, α4β4 nAChR (Rattus norvegicus, UniProt P09483+P12392).
T7 construct: expressed in transfected cells; host or cells: Xenopus oocytes, cRNA injected
The class given is cell-based. The following applies: SEM.

The target in assay [8] is T8, α3β2 nAChR (Rattus norvegicus, UniProt P04757+P12390).
T8 construct: expressed in transfected cells; host or cells: Xenopus oocytes, cRNA injected
The class given is cell-based. The following applies: SEM.

Assay [9] deals with T9, CaV2.2 (Rattus norvegicus, UniProt Q02294).
T9 construct: expressed in transfected cells; host or cells: HEK293
The class given is cell-based.

For assay [10], the system named is GABABR-coupled CaV2.2. To be noted: cited from earlier work.

Positions of bridges follow the written chain, without caps; N, C: chain ends. Residues, ends and D or L forms follow the SMILES beside them.

T1 sequence (Q9UBS5 15-961 limits assumed): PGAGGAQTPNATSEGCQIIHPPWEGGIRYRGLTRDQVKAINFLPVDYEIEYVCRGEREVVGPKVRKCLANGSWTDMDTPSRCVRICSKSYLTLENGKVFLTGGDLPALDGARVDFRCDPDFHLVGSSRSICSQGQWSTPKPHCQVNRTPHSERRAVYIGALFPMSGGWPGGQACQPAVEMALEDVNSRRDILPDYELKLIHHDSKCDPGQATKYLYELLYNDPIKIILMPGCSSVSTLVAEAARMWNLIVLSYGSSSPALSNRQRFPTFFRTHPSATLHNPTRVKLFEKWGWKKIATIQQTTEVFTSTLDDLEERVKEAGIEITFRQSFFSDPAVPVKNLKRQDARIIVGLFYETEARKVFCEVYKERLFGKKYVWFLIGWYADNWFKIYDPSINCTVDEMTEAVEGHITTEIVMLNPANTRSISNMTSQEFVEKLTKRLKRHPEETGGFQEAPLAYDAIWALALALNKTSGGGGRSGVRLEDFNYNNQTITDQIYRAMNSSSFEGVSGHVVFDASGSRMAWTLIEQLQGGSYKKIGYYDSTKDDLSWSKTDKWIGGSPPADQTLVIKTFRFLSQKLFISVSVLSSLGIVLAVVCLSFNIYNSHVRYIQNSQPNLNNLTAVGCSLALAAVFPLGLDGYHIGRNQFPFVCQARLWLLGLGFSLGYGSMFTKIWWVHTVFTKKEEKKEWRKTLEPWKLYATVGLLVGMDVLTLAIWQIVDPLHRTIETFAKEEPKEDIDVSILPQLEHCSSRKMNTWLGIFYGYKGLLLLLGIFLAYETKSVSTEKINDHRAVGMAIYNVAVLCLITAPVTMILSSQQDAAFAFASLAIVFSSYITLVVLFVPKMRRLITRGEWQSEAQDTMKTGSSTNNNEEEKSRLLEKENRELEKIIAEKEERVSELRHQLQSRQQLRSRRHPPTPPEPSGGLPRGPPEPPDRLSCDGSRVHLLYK
T1 sequence (O75899 42-941): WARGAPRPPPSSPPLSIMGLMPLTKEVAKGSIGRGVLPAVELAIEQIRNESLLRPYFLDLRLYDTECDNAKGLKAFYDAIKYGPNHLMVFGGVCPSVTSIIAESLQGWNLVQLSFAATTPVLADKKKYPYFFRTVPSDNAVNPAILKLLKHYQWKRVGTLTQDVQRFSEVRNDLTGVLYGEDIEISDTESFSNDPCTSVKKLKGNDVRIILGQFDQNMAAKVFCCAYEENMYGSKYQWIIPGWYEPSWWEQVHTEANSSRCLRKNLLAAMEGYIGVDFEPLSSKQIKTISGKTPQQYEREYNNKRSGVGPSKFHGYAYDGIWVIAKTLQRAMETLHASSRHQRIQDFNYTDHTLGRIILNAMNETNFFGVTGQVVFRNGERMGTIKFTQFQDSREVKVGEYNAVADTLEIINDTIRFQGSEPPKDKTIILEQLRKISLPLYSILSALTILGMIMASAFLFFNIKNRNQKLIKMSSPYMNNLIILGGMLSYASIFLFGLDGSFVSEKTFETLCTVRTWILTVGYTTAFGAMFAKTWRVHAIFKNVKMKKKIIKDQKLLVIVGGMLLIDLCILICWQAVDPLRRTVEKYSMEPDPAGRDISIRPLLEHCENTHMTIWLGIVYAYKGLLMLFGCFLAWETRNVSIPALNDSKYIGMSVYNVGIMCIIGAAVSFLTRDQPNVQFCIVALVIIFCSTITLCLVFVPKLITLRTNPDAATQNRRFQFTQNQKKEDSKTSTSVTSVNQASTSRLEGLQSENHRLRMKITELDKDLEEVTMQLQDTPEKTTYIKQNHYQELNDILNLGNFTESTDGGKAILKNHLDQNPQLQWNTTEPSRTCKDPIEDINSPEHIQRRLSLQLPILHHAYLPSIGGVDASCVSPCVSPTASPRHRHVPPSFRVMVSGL
T7 sequence (P09483 31-630 limits assumed): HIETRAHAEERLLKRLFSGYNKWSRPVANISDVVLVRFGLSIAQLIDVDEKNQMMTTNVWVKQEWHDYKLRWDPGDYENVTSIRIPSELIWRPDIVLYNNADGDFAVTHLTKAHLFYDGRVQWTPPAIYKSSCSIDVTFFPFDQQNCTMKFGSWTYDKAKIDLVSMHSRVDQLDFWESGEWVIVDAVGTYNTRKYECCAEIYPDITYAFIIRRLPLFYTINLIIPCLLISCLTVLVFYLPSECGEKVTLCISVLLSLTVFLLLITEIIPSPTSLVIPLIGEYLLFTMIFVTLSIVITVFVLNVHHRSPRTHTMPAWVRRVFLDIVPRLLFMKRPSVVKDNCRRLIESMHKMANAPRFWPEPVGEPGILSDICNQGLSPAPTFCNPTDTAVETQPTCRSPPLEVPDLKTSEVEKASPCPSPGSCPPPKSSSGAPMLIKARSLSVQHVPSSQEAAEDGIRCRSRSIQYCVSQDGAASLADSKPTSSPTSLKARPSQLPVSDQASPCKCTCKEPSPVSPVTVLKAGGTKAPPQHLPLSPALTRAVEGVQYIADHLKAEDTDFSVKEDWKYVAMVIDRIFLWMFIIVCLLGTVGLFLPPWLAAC
T7 sequence (P12392 21-495 limits assumed): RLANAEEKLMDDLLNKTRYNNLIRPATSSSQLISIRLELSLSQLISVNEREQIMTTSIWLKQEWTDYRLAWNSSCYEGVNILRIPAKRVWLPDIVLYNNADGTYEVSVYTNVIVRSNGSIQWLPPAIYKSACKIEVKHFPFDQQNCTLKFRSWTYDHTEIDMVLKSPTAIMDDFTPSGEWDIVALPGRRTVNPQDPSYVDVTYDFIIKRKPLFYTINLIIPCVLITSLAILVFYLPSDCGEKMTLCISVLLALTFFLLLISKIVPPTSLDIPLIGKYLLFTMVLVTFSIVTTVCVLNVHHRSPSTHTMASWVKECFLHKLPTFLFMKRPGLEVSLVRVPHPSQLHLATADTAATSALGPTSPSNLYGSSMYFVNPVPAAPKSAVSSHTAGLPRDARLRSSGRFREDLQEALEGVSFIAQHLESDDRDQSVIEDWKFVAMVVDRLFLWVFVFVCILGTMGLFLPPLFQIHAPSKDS
T5 sequence (P09483 31-630 limits assumed): as the sequence (P09483 31-630 limits assumed) above
T5 sequence (P12390 25-500 limits assumed): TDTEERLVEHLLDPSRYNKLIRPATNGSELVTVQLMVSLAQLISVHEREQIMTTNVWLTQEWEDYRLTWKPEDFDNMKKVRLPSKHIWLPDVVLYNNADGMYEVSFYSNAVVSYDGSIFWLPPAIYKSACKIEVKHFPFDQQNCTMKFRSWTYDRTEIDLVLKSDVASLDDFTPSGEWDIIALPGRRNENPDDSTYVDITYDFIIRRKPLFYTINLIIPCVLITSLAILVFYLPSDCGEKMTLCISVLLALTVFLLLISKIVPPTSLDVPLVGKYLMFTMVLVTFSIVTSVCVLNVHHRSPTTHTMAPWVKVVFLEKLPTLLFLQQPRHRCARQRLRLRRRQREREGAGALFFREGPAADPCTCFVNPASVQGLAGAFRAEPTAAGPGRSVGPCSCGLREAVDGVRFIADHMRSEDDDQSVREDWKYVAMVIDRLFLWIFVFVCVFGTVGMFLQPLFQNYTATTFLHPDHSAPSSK
T3 sequence (P04757 26-499 limits assumed): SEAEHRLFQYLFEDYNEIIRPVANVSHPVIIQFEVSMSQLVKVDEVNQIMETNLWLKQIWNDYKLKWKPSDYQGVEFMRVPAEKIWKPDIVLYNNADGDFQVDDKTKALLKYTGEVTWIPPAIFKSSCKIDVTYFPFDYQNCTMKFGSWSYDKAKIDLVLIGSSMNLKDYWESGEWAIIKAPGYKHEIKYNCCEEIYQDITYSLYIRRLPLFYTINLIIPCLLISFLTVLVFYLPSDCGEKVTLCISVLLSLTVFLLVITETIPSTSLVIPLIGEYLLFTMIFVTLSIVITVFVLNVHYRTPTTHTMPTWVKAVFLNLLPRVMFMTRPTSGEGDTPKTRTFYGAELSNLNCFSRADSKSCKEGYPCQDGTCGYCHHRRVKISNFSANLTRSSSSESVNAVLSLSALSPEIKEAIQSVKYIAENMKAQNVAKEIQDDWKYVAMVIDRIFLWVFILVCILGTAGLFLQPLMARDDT
T3 sequence (P12392 21-495 limits assumed): as the sequence (P12392 21-495 limits assumed) above
T8 sequence (P04757 26-499 limits assumed): as the sequence (P04757 26-499 limits assumed) above
T8 sequence (P12390 25-500 limits assumed): as the sequence (P12390 25-500 limits assumed) above
T6 sequence (P43144 26-479 limits assumed): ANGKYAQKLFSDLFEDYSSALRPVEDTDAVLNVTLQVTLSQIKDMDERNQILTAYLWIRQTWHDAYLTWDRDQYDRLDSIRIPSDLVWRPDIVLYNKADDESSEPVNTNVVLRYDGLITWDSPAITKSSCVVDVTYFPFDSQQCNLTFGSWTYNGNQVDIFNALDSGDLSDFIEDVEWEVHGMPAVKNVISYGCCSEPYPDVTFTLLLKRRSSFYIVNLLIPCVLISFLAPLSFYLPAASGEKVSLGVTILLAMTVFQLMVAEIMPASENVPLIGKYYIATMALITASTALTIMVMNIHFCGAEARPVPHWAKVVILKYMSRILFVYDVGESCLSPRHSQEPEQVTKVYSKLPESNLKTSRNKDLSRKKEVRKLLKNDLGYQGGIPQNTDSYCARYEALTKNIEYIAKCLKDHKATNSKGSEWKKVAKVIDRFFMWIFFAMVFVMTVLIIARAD
T6 sequence (Q9JLB5 25-447 limits assumed): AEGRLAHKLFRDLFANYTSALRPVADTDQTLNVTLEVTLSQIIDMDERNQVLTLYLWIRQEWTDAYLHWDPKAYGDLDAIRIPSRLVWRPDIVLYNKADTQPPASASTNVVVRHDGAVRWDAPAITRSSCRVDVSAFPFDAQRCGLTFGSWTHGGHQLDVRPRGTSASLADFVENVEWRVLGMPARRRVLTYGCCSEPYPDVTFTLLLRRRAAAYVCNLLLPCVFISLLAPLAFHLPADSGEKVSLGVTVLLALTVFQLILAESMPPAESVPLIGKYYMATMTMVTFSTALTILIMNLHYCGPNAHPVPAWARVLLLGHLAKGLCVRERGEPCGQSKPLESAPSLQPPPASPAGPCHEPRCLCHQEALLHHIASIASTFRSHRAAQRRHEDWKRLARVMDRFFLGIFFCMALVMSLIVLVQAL

Turning to `C[C@@H]1NC(=O)[C@H](Cc2ccccc2)NC(=O)[C@@H]2CSSC[C@H](NC(=O)CN)C(=O)N[C@@H](CSSC[C@@H](C(N)=O)NC(=O)[C@H](CC(=O)O)NC(=O)[C@@H]3CCCN3C(=O)[C@H](CC(N)=O)NC(=O)[C@H]([C@@H](C)O)NC1=O)C(=O)N[C@@H](CO)C(=O)N[C@@H](Cc1ccc(O)cc1)C(=O)N1CCC[C@H]1C(=O)N1CCC[C@H]1C(=O)N2` [AuIB(globular), reference compound], in assay [1], the inhibition at 1 µM is 27.4 ± 2.05% and the IC50 was determined as 1.93 nM.
Consider `CC(C)C[C@@H]1NC(=O)[C@H](CC(=O)O)NC(=O)[C@@H]2CCCN2C(=O)[C@H](CC(N)=O)NC(=O)[C@H]([C@@H](C)O)NC(=O)[C@H](C)NC(=O)[C@H](Cc2ccccc2)NC(=O)[C@@H]2CSSC[C@H](NC(=O)CN)C(=O)N[C@@H](CSSC[C@@H](C(N)=O)NC1=O)C(=O)N[C@@H](CO)C(=O)N[C@@H](Cc1ccc(O)cc1)C(=O)N1CCC[C@H]1C(=O)N1CCC[C@H]1C(=O)N2` [AuIB[+15L]], for which the inhibition at 1 µM in [1] stood at 27.9 ± 1.37%.
Turning to `CC[C@H](C)[C@@H]1NC(=O)[C@H](CC(=O)O)NC(=O)[C@@H]2CCCN2C(=O)[C@H](CC(N)=O)NC(=O)[C@H]([C@@H](C)O)NC(=O)[C@H](C)NC(=O)[C@H](Cc2ccccc2)NC(=O)[C@@H]2CSSC[C@H](NC(=O)CN)C(=O)N[C@@H](CSSC[C@@H](C(N)=O)NC1=O)C(=O)N[C@@H](CO)C(=O)N[C@@H](Cc1ccc(O)cc1)C(=O)N1CCC[C@H]1C(=O)N1CCC[C@H]1C(=O)N2` [AuIB[+15I]], in assay [1], the inhibition at 1 µM stood at 30.4 ± 3.26%.
`C[C@@H]1NC(=O)[C@H](Cc2ccccc2)NC(=O)[C@@H]2CSSC[C@H](NC(=O)[C@@H](NC(=O)CN)CSSC[C@@H](C(N)=O)NC(=O)[C@H](CC(=O)O)NC(=O)[C@@H]3CCCN3C(=O)[C@H](CC(N)=O)NC(=O)[C@H]([C@@H](C)O)NC1=O)C(=O)N[C@@H](CO)C(=O)N[C@@H](Cc1ccc(O)cc1)C(=O)N1CCC[C@H]1C(=O)N[C@@H](CCCNC(=N)N)C(=O)N2` [AuIB[P7R](ribbon)] (H-GCCSYPRCFATNPDC-NH2; disulfide 2-15, 3-8): the “Inhibitory effect on α7 nAChR” value in [2] was found to be 17.00 ± 0.35%. Besides, the “Inhibitory effect on α3β4 nAChR” value in assay [3] turned out to be 39.27 ± 6.45%. In addition, the “Inhibitory effect on α2β4 nAChR” value in assay [4] is listed as 39.43 ± 6.31%. Also, in assay [5], the “Inhibitory effect on α4β2 nAChR” value turned out to be 35.92 ± 12.50%. Besides, in assay [1], the inhibition at 1 µM came to 51.6 ± 1.86% and the half-maximal inhibitory concentration (IC50) came to 0.74 nM. The “Inhibitory effect on α9α10 nAChR” value in assay [6] is 5.09 ± 7.85%. For the same molecule, the “Inhibitory effect on α4β4 nAChR” value in assay [7] is listed as 30.44 ± 8.03%. Besides, the “Inhibitory effect on α3β2 nAChR” value in assay [8] amounted to 29.25 ± 12.65%. Also, the “direct inhibitory effect on CaV2.2” value in [9] was determined as 14.87 ± 2.42%.
On to Vc1.1, for which the IC50 in assay [10] was 2.38 nM.
